Columns and labels:
Slc: ddY mice = assay: Novel object recognition test in mice (mORT); type: in vivo; details: at 0.3 mg/kg, 1.0 mg/kg or 3 mg/kg
Description: Evaluation of Cognitive Function with Mice in Novel Object Recognition Test (Hereinafter, Referred to as “mORT”)
Slc: ddY mice (25 g to 30 g, male, Japan SLC) can be used in the novel object recognition test wherein the interval between the 1st trial (training) and the 2nd trial (test) correlates with the memory loss for the objects used in the 1st trial, and a significant memory-loss is observed when the 2nd trial is performed 24 hours after the 1st trial. According to the test mechanism, the present compounds were administered prior to the 1st trial, and the enhancement effect on memory in the 2nd trial was evaluated.

human α7 nAChR = target: T1, human α7 nAChR (Homo sapiens, UniProt P36544); assay: Evaluation of PAM activity with human α7 nACh receptor stably expressing cells (aequorin luminescence, FDSS7000, ACh EC20); type: cell-based; details: test compound 10 μmol/L; ACh at EC20; ratio of RLU (Max-Min) of test-compound wells to control wells
T1 construct: expressed in transfected cells; host or cells: GH4C1 cells (rat pituitary, ATCC CCL-82.2)
T1 sequence (P36544 23-502): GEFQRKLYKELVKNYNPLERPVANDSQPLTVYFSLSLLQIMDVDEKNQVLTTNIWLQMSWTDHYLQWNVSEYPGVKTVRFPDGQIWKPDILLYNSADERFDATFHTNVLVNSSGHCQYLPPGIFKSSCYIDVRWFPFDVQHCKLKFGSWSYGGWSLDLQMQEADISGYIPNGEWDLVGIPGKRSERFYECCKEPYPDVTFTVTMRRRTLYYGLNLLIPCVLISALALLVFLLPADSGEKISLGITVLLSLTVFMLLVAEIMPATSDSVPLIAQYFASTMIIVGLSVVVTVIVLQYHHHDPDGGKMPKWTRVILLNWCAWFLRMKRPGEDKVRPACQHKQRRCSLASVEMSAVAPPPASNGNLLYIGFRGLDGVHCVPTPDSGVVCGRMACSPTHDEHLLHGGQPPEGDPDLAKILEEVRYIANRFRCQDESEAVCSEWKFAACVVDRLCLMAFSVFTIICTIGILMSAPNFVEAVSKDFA
From the text: Evaluation of PAM Activity with Human α7 nACh Receptor Stably Expressing Cells
(1) Human α7 nAChR Stably Expressing Cells
Human α7 nAChR stably expressing cells were generated and cultured. In detail, GH4C1 cells derived from rat pituitary (cat#CCL-82.2, ATCC, USA) were used as a host cell. PcDNA3.1Zeo vector containing a nucleotide sequence encoding a protein GenBank BAC81731 and pcDNA3.1 vector containing human α7 nAChR gene (cat#V790-20, invitrogen, Carlsbad, Calif., USA) were transfected to the cells to give aequorins and human α7 nAChR stably expressing cells respectively. The aequorins and human α7 nAChR stably expressing cells were screened with Zeocin (cat#R25001, invitrogen, Carlsbad, Calif., USA) and Geneticin (cat#10131-027, invitrogen, Carlsbad, Calif., USA) respectively.
The cells were cultured in F-10 Nutrient Mixture (Ham) medium (cat#11550-043, invitrogen, Carlsbad, Calif., USA) containing 2.5% fetal bovine serum (cat#2917354, ICN Biomedicals, Inc, USA), 15% inactivated horse serum (cat#26050-088, invitrogen, Carlsbad, Calif., USA), 1 μg/mL Geneticin, and 5 μg/mL Puromycin (cat#14861-84, invitrogen, Carlsbad, Calif., USA), in a Collagen Type 1-coated dish (cat#4030-010, iwaki, Tokyo, Japan). During the culture, the medium was replaced with fresh medium in every 2 to 3 days, and the cells were treated with TrypLE Express (cat#45604-021, invitrogen, Carlsbad, Calif., USA) to collect them in every 7 days. Thus, the cells were subcultured.
7 Days after subculturing, the cells were treated with TrypLE Express to collect them when they were about 80% confluent. The cells were suspended in a reaction medium containing Hanks (cat#14065-056, invitrogen, Carlsbad, Calif., USA)/20 mmol/L Hepes (cat#15630-080, invitrogen, Carlsbad, Calif., USA), Buffer (pH 7.4), F-10 Nutrient Mixture (Ham), and 0.1 mg/mL Geneticin, and the suspension was seeded in a 384-well plate (cat#781090, Greiner, Germany) at 20000 cells/25 μL per well.
On the next day after seeding, Viviren (cat#E649X, Promega, Madison, Wis., USA) was added to the medium so that the final concentration could be 4 μmol/L (15 μL/well). The plates were centrifuged and then placed in the dark for 4 hours at room temperature.
(2) Preparation of the Test Samples
Each of the test compounds was dissolved in DMSO to prepare each test sample at a concentration of 1000-fold the final concentration. To the solution was added Hanks/20 mM HEPES/0.2% BSA (cat#A3803, Sigma, St. Louis, Mo., USA), and the concentration was adjusted to 6-fold the final concentration.
(3) Evaluation of PAM Activity
FDSS7000 (Hamamatsu Photonics) was used to detect the luminescence signal evoked by α7 nAChR stimulation. The cells and a luminescent substrate were put on a plate, and the test sample was added thereto. […] After the addition of ACh, the luminescence signal (the central wavelength: 465 nm) was measured for 138 seconds to calculate RLU (Max-Min). The ratio of the RLU (Max-Min) of the test-compound-containing wells to that of the control wells was defined as PAM activity.

α7PAM (%) @ 10 μmol/L (human α7 nAChR) [%]	SMILES	efficacy at higher doses (Slc: ddY mice)
1093	CCc1ccc2c(cnn2C2CCN(C(=O)NC3CCOCC3)CC2)c1OC [Example 275, 4-(5-ethyl-4-methoxy-1H-indazol-1-yl)-N-(tetrahydro-2H-pyran-4-yl)piperidine-1-carboxamide]	–
1433	CO[C@H]1CC[C@H](NC(=O)N2CCC(n3ncc4cc(OC(F)F)ccc43)CC2)CC1 [Example 291, 4-[5-(difluoromethoxy)-1H-indazol-1-yl]-N-(trans-4-methoxycyclohexyl)piperidine-1-carboxamide]	–
340	O=C(NC1CCOCC1)N1CCC(n2ncc3cc(C(F)(F)F)ccc32)CC1 [Example 297]	–
380	O=C(NC1CCOCC1)N1CCC(n2ncc3c(OC(F)(F)F)cccc32)CC1 [Example 304]	–
360	COc1c(C(F)(F)F)ccc2c1cnn2C1CCN(C(=O)NC2CCC(OC)CC2)CC1 (stereo not drawn) [Example 317]	–

Continued, compound first:

SMILES	α7PAM (%) @ 10 μmol/L (human α7 nAChR) [%]	efficacy at higher doses (Slc: ddY mice)
CO[C@H]1CC[C@H](NC(=O)N2CCC(n3ncc4cc(C)ccc43)CC2)CC1 [Example 1, N-(trans-4-methoxycyclohexyl)-4-(5-methyl-1H-indazol-1-yl)piperidine-1-carboxamide]	1209	the efficacy did not decrease
CO[C@H]1CC[C@H](NC(=O)N2CCC(n3ncc4cc(C5CC5)ccc43)CC2)CC1 [Example 74, 4-(5-cyclopropyl-1H-indazol-1-yl)-N-(trans-4-methoxycyclohexyl)piperidine-1-carboxamide]	1226	the efficacy did not decrease
COC(C)c1c(C)ccc2c1cnn2C1CCN(C(=O)NC2CCC(F)(F)CC2)CC1 (stereo not drawn) [Example 232]	860	–
O=C(NC1CCC(F)(F)CC1)N1CCC(n2ncc3cc(OC4CC4)ccc32)CC1 [Example 249, 4-[5-(cyclopropoxy)-1H-indazol-1-yl]-N-(4,4-difluorocyclohexyl)piperidine-1-carboxamide]	1463	–
CCc1ccc2c(cnn2C2CCN(C(=O)N[C@H]3CC[C@H](OC)CC3)CC2)c1OC [Example 255, 4-(5-ethyl-4-methoxy-1H-indazol-1-yl)-N-(trans-4-methoxycyclohexyl)piperidine-1-carboxamide]	1096	–
